Measured values: ChEMBL document CHEMBL1201862, “PubChem BioAssay data set” (2004)
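Dose response: 5 concentrations. Exposure: 48 h. Format: 96-well plates. Endpoint: linear interpolation; highest concentration if not reached. Here, GI50 denotes the concentration required for 50% inhibition of growth.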 The source made the active and inactive calls. No stated cut-off is given here; in the data, active = GI50 up to about 1.1 µM and inactive = higher.

Key:
Test in all cases: NCI-60 cell line screen, 48 h
SW-620 = system: SW-620
IGROV-1 = system: IGROV-1
SN12C = system: SN12C
LOX IMVI = system: LOX IMVI
HCC 2998 = system: HCC 2998
SR = system: SR
HOP-62 = system: HOP-62
TK-10 = system: TK-10
HCT-116 = system: HCT-116
OVCAR-3 = system: OVCAR-3
SK-MEL-5 = system: SK-MEL-5
SNB-75 = system: SNB-75
ACHN = system: ACHN
SK-OV-3 = system: SK-OV-3
COLO 205 = system: COLO 205
NCI-H23 = system: NCI-H23
K562 = system: K562
M14 = system: M14
Hs-578T = system: Hs-578T
PC-3 = system: PC-3

SMILES	GI50 (SW-620)	GI50 (IGROV-1)	GI50 (SN12C)	GI50 (LOX IMVI)	GI50 (HCC 2998)	GI50 (SR)	GI50 (HOP-62)	GI50 (TK-10)	GI50 (HCT-116)	GI50 (OVCAR-3)	GI50 (SK-MEL-5)	GI50 (SNB-75)	GI50 (ACHN)	GI50 (SK-OV-3)	GI50 (COLO 205)	GI50 (NCI-H23)	GI50 (K562)	GI50 (M14)	GI50 (Hs-578T)	GI50 (PC-3)
Oc1ccc(Br)cc1/C=N/c1c(NC2CCCCC2)oc2ccc(Br)cc12	35.3 µM (inactive)	56.4 µM (inactive)	44.4 µM (inactive)	18.3 µM (inactive)	35.8 µM (inactive)	45.9 µM (inactive)	68.4 µM (inactive)	40.6 µM (inactive)	13.7 µM (inactive)	18.2 µM (inactive)	40.6 µM (inactive)	37.2 µM (inactive)	35.8 µM (inactive)	87.5 µM (inactive)	> 10 µM (inactive)	15.5 µM (inactive)	10.7 µM (inactive)			
N#C/C(=C/c1ccsc1)C(=O)c1ccccc1	> 100 µM (inactive)		> 100 µM (inactive)	> 100 µM (inactive)	> 100 µM (inactive)	> 100 µM (inactive)	> 100 µM (inactive)	> 100 µM (inactive)	> 100 µM (inactive)	> 100 µM (inactive)	> 100 µM (inactive)	> 100 µM (inactive)	> 100 µM (inactive)	> 100 µM (inactive)	> 100 µM (inactive)	> 100 µM (inactive)	> 100 µM (inactive)	> 100 µM (inactive)		
Cc1nc2nn(C)cc2c(=O)n1/N=C/c1ccccc1	> 100 µM (inactive)	> 100 µM (inactive)	> 100 µM (inactive)	> 100 µM (inactive)	> 100 µM (inactive)	> 100 µM (inactive)	> 100 µM (inactive)	> 100 µM (inactive)	> 100 µM (inactive)	> 100 µM (inactive)	> 100 µM (inactive)	> 100 µM (inactive)	> 100 µM (inactive)	> 100 µM (inactive)	> 100 µM (inactive)	> 100 µM (inactive)	> 100 µM (inactive)			
COC(=O)C1=Cc2cn(S(=O)(=O)c3ccc(C)cc3)c3cccc(c23)C(C=C(C)C)N1C(C)=O (stereo unspecified)	32.7 µM (inactive)	48.8 µM (inactive)	14.1 µM (inactive)	71.1 µM (inactive)	> 100 µM (inactive)	12.4 µM (inactive)	> 100 µM (inactive)	38.9 µM (inactive)	11.1 µM (inactive)	9.14 µM (inactive)	10.5 µM (inactive)	98.6 µM (inactive)	18.8 µM (inactive)	> 100 µM (inactive)	4.71 µM (inactive)	36.9 µM (inactive)	8 µM (inactive)	30.2 µM (inactive)		
Nc1ccn(CCCC(c2ccccc2)P(=O)(O)O)c(=O)n1 (stereo unspecified)	> 100 µM (inactive)	> 100 µM (inactive)	> 100 µM (inactive)	> 100 µM (inactive)	> 100 µM (inactive)	> 100 µM (inactive)	> 100 µM (inactive)	> 100 µM (inactive)	> 100 µM (inactive)	> 100 µM (inactive)	> 100 µM (inactive)	> 100 µM (inactive)	> 100 µM (inactive)	> 100 µM (inactive)	> 100 µM (inactive)	> 100 µM (inactive)	> 100 µM (inactive)	> 100 µM (inactive)		
O=C(O)c1cc2c3ccccc3nc-2c[nH]1	> 100 µM (inactive)	> 100 µM (inactive)	> 100 µM (inactive)	> 100 µM (inactive)	> 100 µM (inactive)	> 100 µM (inactive)	> 100 µM (inactive)	> 100 µM (inactive)	> 100 µM (inactive)	> 100 µM (inactive)	> 100 µM (inactive)	> 100 µM (inactive)	> 100 µM (inactive)	> 100 µM (inactive)	> 100 µM (inactive)	> 100 µM (inactive)	> 100 µM (inactive)	> 100 µM (inactive)		
CC(C)Oc1ccc(CNC2=NCCO2)c2ccccc12	15.3 µM (inactive)	12.6 µM (inactive)	17.3 µM (inactive)		10.9 µM (inactive)	7.85 µM (inactive)	15.6 µM (inactive)	16.3 µM (inactive)	12.6 µM (inactive)		12.9 µM (inactive)	18.2 µM (inactive)	14 µM (inactive)	16.3 µM (inactive)	16.4 µM (inactive)	14.6 µM (inactive)	4.57 µM (inactive)	11.4 µM (inactive)	10.3 µM (inactive)	
CC(=O)Nc1ccc(C(=O)NN2C(=O)CSC2c2ccccc2)cc1 (stereo unspecified)	> 100 µM (inactive)	> 100 µM (inactive)	> 100 µM (inactive)		> 100 µM (inactive)		> 100 µM (inactive)	> 100 µM (inactive)	> 100 µM (inactive)	> 100 µM (inactive)	> 100 µM (inactive)	90.8 µM (inactive)	> 100 µM (inactive)	> 100 µM (inactive)	> 100 µM (inactive)	> 100 µM (inactive)	> 100 µM (inactive)	> 100 µM (inactive)	> 100 µM (inactive)	
O=C(N/C(=C/c1cccc([N+](=O)[O-])c1)c1nc2cc(Cl)ccc2[nH]1)c1ccccc1	5.55 µM (inactive)	4.53 µM (inactive)	14.3 µM (inactive)	4.53 µM (inactive)	23.1 µM (inactive)	3.61 µM (inactive)	17.7 µM (inactive)	3.67 µM (inactive)	8.95 µM (inactive)	19.6 µM (inactive)	2.82 µM (inactive)	19.2 µM (inactive)	11.3 µM (inactive)	17.3 µM (inactive)	41.9 µM (inactive)	11.4 µM (inactive)	6.21 µM (inactive)	20.7 µM (inactive)		
Cc1cc2c(cc1C)[n+]([O-])c(C(=O)CC(=O)C(=O)Nc1ccccc1C)c(C)[n+]2[O-]	> 100 µM (inactive)	> 100 µM (inactive)	> 100 µM (inactive)	> 100 µM (inactive)	> 100 µM (inactive)	38 µM (inactive)	> 100 µM (inactive)	> 100 µM (inactive)	> 100 µM (inactive)	> 100 µM (inactive)	> 100 µM (inactive)	> 100 µM (inactive)	> 100 µM (inactive)	> 100 µM (inactive)	46.5 µM (inactive)	> 100 µM (inactive)	> 100 µM (inactive)	> 100 µM (inactive)		
CNC(=O)N(CCC#N)CCCN(C(=O)NC)c1ccccc1	> 100 µM (inactive)	> 100 µM (inactive)	> 100 µM (inactive)	> 100 µM (inactive)	> 100 µM (inactive)	> 100 µM (inactive)	> 100 µM (inactive)	> 100 µM (inactive)	> 100 µM (inactive)	> 100 µM (inactive)	> 100 µM (inactive)	72.6 µM (inactive)	> 100 µM (inactive)	> 100 µM (inactive)	> 100 µM (inactive)	> 100 µM (inactive)	> 100 µM (inactive)	> 100 µM (inactive)		> 100 µM (inactive)
CC1OC(=O)C(C(C)C)NC(=O)C(C(C)C)OC(=O)C(C(C)C)NC(=O)C(C)OC(=O)C(C(C)C)NC(=O)C(C(C)C)OC(=O)C(C(C)C)NC(=O)C(C)OC(=O)C(C(C)C)NC(=O)C(C(C)C)OC(=O)C(C(C)C)NC1=O (stereo unspecified)	0.0025 µM (active)	0.00275 µM (active)	0.00273 µM (active)	0.00538 µM (active)	0.00256 µM (active)	< 0.0001 µM (active)	0.0025 µM (active)	< 0.0001 µM (active)		0.0025 µM (active)		0.00301 µM (active)	< 0.0001 µM (active)	0.00326 µM (active)	0.0025 µM (active)	0.0025 µM (active)	0.00299 µM (active)	< 0.0001 µM (active)		< 0.0001 µM (active)
CC(=O)/C(=C\n1c(=S)[nH]c2ccc([N+](=O)[O-])cc21)C(=O)Nc1ccccc1C	> 100 µM (inactive)	> 100 µM (inactive)	> 100 µM (inactive)	> 100 µM (inactive)	> 100 µM (inactive)	88.5 µM (inactive)	> 100 µM (inactive)		> 100 µM (inactive)	> 100 µM (inactive)	78.3 µM (inactive)		> 100 µM (inactive)	> 100 µM (inactive)	> 100 µM (inactive)	> 100 µM (inactive)	> 100 µM (inactive)	> 100 µM (inactive)		> 100 µM (inactive)
C=C1CC2CC[C@@]34C[C@@H]5O[C@@H]6C(O[C@H]7CC[C@H](CC(=O)OC8[C@@H](C)C9OC%10C[C@]%11(C[C@@H]%12O[C@@]%13(C[C@@H](C)[C@@H]%12O%11)C[C@H](C)[C@@H]%11OC%12CC(C(O)CO)OC%12C[C@@H]%11O%13)OC%10CC9O[C@H]8C[C@H]8O[C@@H](CC[C@@H]1O2)C[C@@H](C)C8=C)O[C@@H]7[C@@H]6O3)C5O4 (stereo partly specified)	0.000485 µM (active)	0.00248 µM (active)	0.00313 µM (active)	0.000469 µM (active)	0.00225 µM (active)	0.000718 µM (active)	0.00141 µM (active)	0.00863 µM (active)	0.000582 µM (active)	0.000279 µM (active)	0.000308 µM (active)	0.000434 µM (active)	0.0038 µM (active)	0.00166 µM (active)	0.000667 µM (active)	0.00104 µM (active)	0.000755 µM (active)	0.00108 µM (active)		
